Data on 32 molecules can be found in US12677832B2, “Oxadiazole compounds for controlling or preventing phytopathogenic fungi” (PI INDUSTRIES LTD., priority 2019, dated 2026).

Assay [1] deals with Pyricularia oryzae. As to the kind of experiment: microbe, parasite or virus in culture. Type of assay: cell-based. As to conditions: 168 h, read-out: control.
Assay [2] deals with Alternaria solani. As to the kind of experiment: Alternaria solani (Early Blight of Tomato/Potato) radial growth on potato dextrose agar. As to conditions: 168 h, radial growth after seven days compared to untreated control. Type of assay: cell-based.
For assay [3], the system named is Phakopsora pachyrhizi. Description: Phakopsora pachyrhizi Test in Soybean (preventive spray). Type of assay: in vivo. The conditions noted are these: preventive spray on Soybean plants, inoculated one day after treatment, disease severity vs untreated control. On the procedure: Example 7: Phakopsora pachyrhizi Test in Soybean Compounds were dissolved in 2% dimethyl sulfoxide/acetone and then mixed with water containing an emulsifier to a calibrated spray volume of 50 mL. This 50 mL spray solution was poured into spray bottles for further applications. To test the preventive activity of compounds, healthy young Soybean plants, raised in the greenhouse, were sprayed with the active compound preparation at the stated application rates inside the spray cabinets using hollow cone nozzles. One day after treatment, the plants were inoculated with a spore suspension containing 2×10^5Phakopsora pachyrhizi conidia. The inoculated plants were then kept in a greenhouse chamber at 22-24° C. temperature and 80-90% relative humidity for disease expression. A visual assessment of the compound's performance was carried out by rating the disease severity (0-100% scale) on treated plants 3, 7, 10 and 15 days after application. Efficacy (% control) of the compounds was calculated by comparing the disease rating in the treatment with the one of the untreated control. The sprayed plants were also assessed for plant compatibility by recording symptoms like necrosis, chlorosis and stunting.

With `O=C(C[S+]([O-])c1cccc(F)c1)c1ccc(-c2noc(C(F)(F)F)n2)cn1` (centres unmarked) [Compound 128, 2-((3-fluorophenyl)sulfinyl)-1-(5-(5-(trifluoromethyl)-1,2,4-oxadiazol-3-yl)pyridin-2-yl)ethan-1-one], the inhibition of growth at 300 ppm in assay [1] and in assay [2] was at least 70% in each case. For `C=CCSCC(=O)c1ccc(-c2noc(C(F)(F)F)n2)cc1` [Compound 61, 2-(allylthio)-1-(4-(5-(trifluoromethyl)-1,2,4-oxadiazol-3-yl)phenyl)ethan-1-one], the inhibition of growth at 300 ppm in assay [2] was at least 70%. For `CC(C)SCC(=O)c1ccc(-c2noc(C(F)(F)F)n2)cc1` [Compound 69, 2-(isopropylthio)-1-(4-(5-(trifluoromethyl)-1,2,4-oxadiazol-3-yl)phenyl)ethan-1-one], the inhibition of growth at 300 ppm in assay [1] and in assay [2] was at least 70% each time. As for `Cc1ccc(Cl)cc1OCC(=O)c1ccc(-c2noc(C(F)(F)F)n2)cc1` [Compound 17, 2-(5-chloro-2-methylphenoxy)-1-(4-(5-(trifluoromethyl)-1,2,4-oxadiazol-3-yl)phenyl)ethan-1-one], the pest or weed control (as a rule, how far the test organism was held down) at 500 ppm in assay [3] was at least 70%. Further, the inhibition of growth at 300 ppm in assay [2] is at least 70%. As to `O=C(CNc1ccc(F)c(F)c1)c1ccc(-c2noc(C(F)(F)F)n2)cc1` [Compound 27, 2-((3,4-difluorophenyl)amino)-1-(4-(5-(trifluoromethyl)-1,2,4-oxadiazol-3-yl)phenyl)ethan-1-one], the pest or weed control at 500 ppm in assay [3] is at least 70%. The molecule further showed an inhibition of growth at 300 ppm in assay [2] of at least 70%. As to `O=C(CSCc1ccccc1)c1ccc(-c2noc(C(F)(F)F)n2)cn1` [Compound 118, 2-(benzylthio)-1-(5-(5-(trifluoromethyl)-1,2,4-oxadiazol-3-yl)pyridin-2-yl)ethan-1-one], the inhibition of growth at 300 ppm in assay [1] is at least 70%. Same read-out and setting: in the case of `O=C(CSc1nccs1)c1ccc(-c2noc(C(F)(F)F)n2)cc1` [Compound 73, 2-(thiazol-2-ylthio)-1-(4-(5-(trifluoromethyl)-1,2,4-oxadiazol-3-yl)phenyl)ethan-1-one] it was at least 70%; in that of `O=C(CSc1ccc(C(F)(F)F)cc1)c1ccc(-c2noc(C(F)(F)F)n2)cc1` [Compound 71, 1-(4-(5-(trifluoromethyl)-1,2,4-oxadiazol-3-yl)phenyl)-2-((4-(trifluoromethyl)phenyl)thio)ethan-1-one], at least 70%.

With `Cc1ccccc1OCC(=O)c1ccc(-c2noc(C(F)(F)F)n2)cc1` [Compound 39, 2-(o-tolyloxy)-1-(4-(5-(trifluoromethyl)-1,2,4-oxadiazol-3-yl)phenyl)ethan-1-one], in assay [2], the inhibition of growth at 300 ppm was at least 70%. On to `Cc1cnc([S+]([O-])CC(=O)c2ccc(-c3noc(C(F)(F)F)n3)cc2)s1` (centres unmarked) [Compound 83, 2-((5-methylthiazol-2-yl)sulfinyl)-1-(4-(5-(trifluoromethyl)-1,2,4-oxadiazol-3-yl)phenyl)ethan-1-one], for which, in assay [1], the inhibition of growth at 300 ppm was at least 70%. Further, the pest or weed control at 500 ppm in assay [3] was at least 70%. As to `O=C(COc1ccc(Br)nc1)c1ccc(-c2noc(C(F)(F)F)n2)cc1` [Compound 49, 2-((6-bromopyridin-3-yl)oxy)-1-(4-(5-(trifluoromethyl)-1,2,4-oxadiazol-3-yl)phenyl)ethan-1-one], the inhibition of growth at 300 ppm in assay [1] was at least 70%. For the same molecule, the pest or weed control at 500 ppm in assay [3] was at least 70%. With `Cc1ccccc1SCC(=O)c1ccc(-c2noc(C(F)(F)F)n2)cc1` [Compound 66, 2-(o-tolylthio)-1-(4-(5-(trifluoromethyl)-1,2,4-oxadiazol-3-yl)phenyl)ethan-1-one], the inhibition of growth at 300 ppm in assay [1] is at least 70%. In addition, in assay [3], the pest or weed control at 500 ppm was at least 70%.

Consider `Cc1cccc(S(=O)(=O)CC(=O)c2ccc(-c3noc(C(F)(F)F)n3)cc2)c1` [Compound 110, 2-(m-tolylsulfonyl)-1-(4-(5-(trifluoromethyl)-1,2,4-oxadiazol-3-yl)phenyl)ethan-1-one], for which the inhibition of growth at 300 ppm in assay [1] was at least 70%. Take `O=C(COc1cccnc1)c1ccc(-c2noc(C(F)(F)F)n2)cc1` [Compound 21, 2-(pyridin-3-yloxy)-1-(4-(5-(trifluoromethyl)-1,2,4-oxadiazol-3-yl)phenyl)ethan-1-one]: the pest or weed control at 500 ppm in assay [3] is at least 70%. In addition, the inhibition of growth at 300 ppm in assay [2] was at least 70%. Take `O=C(CSc1ccncc1)c1ccc(-c2noc(C(F)(F)F)n2)cc1` [Compound 68, 2-(pyridin-4-ylthio)-1-(4-(5-(trifluoromethyl)-1,2,4-oxadiazol-3-yl)phenyl)ethan-1-one]: the inhibition of growth at 300 ppm in assay [2] was at least 70%. In the case of `CC(C)(C)SCC(=O)c1ccc(-c2noc(C(F)(F)F)n2)cc1` [Compound 70, 2-(tert-butylthio)-1-(4-(5-(trifluoromethyl)-1,2,4-oxadiazol-3-yl)phenyl)ethan-1-one], the inhibition of growth at 300 ppm in assay [1] is at least 70%.

As for `Nc1cc[n+](CC(=O)c2ccc(-c3noc(C(F)(F)F)n3)cc2)cc1` [Compound 148, 4-amino-1-(2-oxo-2-(4-(5-(trifluoromethyl)-1,2,4-oxadiazol-3-yl)phenyl)ethyl)pyridin-1-ium bromide], in assay [1], the inhibition of growth at 300 ppm was at least 70%.

Consider `CC(C)S(=O)(=O)CC(=O)c1ccc(-c2noc(C(F)(F)F)n2)cc1` [Compound 106, 2-(isopropylsulfonyl)-1-(4-(5-(trifluoromethyl)-1,2,4-oxadiazol-3-yl)phenyl)ethan-1-one], for which, in assay [1], the inhibition of growth at 300 ppm was at least 70%. Molecule `O=C(C[S+]([O-])c1c(Cl)cccc1Cl)c1ccc(-c2noc(C(F)(F)F)n2)cn1` (centres unmarked) [Compound 132, 2-((2,6-dichlorophenyl)sulfinyl)-1-(5-(5-(trifluoromethyl)-1,2,4-oxadiazol-3-yl)pyridin-2-yl)ethan-1-one] had an inhibition of growth at 300 ppm in assay [2] of at least 70%. In the case of `O=C(CS(=O)(=O)c1ccc(Cl)c(Cl)c1)c1ccc(-c2noc(C(F)(F)F)n2)cc1` [Compound 94, 2-((3,4-dichlorophenyl)sulfonyl)-1-(4-(5-(trifluoromethyl)-1,2,4-oxadiazol-3-yl)phenyl)ethan-1-one], the pest or weed control at 500 ppm in assay [3] is at least 70%. For the molecule `O=C(COc1ccc(Cl)cc1Cl)c1ccc(-c2noc(C(F)(F)F)n2)cc1` [Compound 20, 2-(2,4-dichlorophenoxy)-1-(4-(5-(trifluoromethyl)-1,2,4-oxadiazol-3-yl)phenyl)ethan-1-one], the pest or weed control at 500 ppm in assay [3] is at least 70%.

In assay [3], `Cc1ccc(SCC(=O)c2ccc(-c3noc(C(F)(F)F)n3)cc2)cc1` [Compound 22, 2-(p-tolylthio)-1-(4-(5-(trifluoromethyl)-1,2,4-oxadiazol-3-yl)phenyl)ethan-1-one] returned a pest or weed control at 500 ppm of at least 70%. In turn, `O=C(COc1ccc(F)cc1F)c1ccc(-c2noc(C(F)(F)F)n2)cc1` [Compound 18, 2-(2,4-difluorophenoxy)-1-(4-(5-(trifluoromethyl)-1,2,4-oxadiazol-3-yl)phenyl)ethan-1-one] came in with a pest or weed control at 500 ppm in assay [3] of at least 70%. This molecule had an inhibition of growth at 300 ppm in assay [2] of at least 70%. In assay [3], `O=C(CSc1ccc(Cl)c(Cl)c1)c1ccc(-c2noc(C(F)(F)F)n2)cc1` [Compound 52, 2-((3,4-dichlorophenyl)thio)-1-(4-(5-(trifluoromethyl)-1,2,4-oxadiazol-3-yl)phenyl)ethan-1-one] registered a pest or weed control at 500 ppm of at least 70%. In the case of `COc1ccc(OCC(=O)c2ccc(-c3noc(C(F)(F)F)n3)cc2)cc1` [Compound 2, 2-(4-methoxyphenoxy)-1-(4-(5-(trifluoromethyl)-1,2,4-oxadiazol-3-yl)phenyl)ethan-1-one], the pest or weed control at 500 ppm in assay [3] is at least 70%. In assay [3], `O=C(COc1cccnc1Cl)c1ccc(-c2noc(C(F)(F)F)n2)cc1` [Compound 46, 2-((2-chloropyridin-3-yl)oxy)-1-(4-(5-(trifluoromethyl)-1,2,4-oxadiazol-3-yl)phenyl)ethan-1-one] displayed a pest or weed control at 500 ppm of at least 70%. `Cc1ccc(Cl)c(OCC(=O)c2ccc(-c3noc(C(F)(F)F)n3)cc2)c1` [Compound 33, 2-(2-chloro-5-methylphenoxy)-1-(4-(5-(trifluoromethyl)-1,2,4-oxadiazol-3-yl)phenyl)ethan-1-one]: in assay [3], the pest or weed control at 500 ppm was at least 70%. Still for that read-out and setting: next, `O=C(COc1ccc(F)cc1Cl)c1ccc(-c2noc(C(F)(F)F)n2)cc1` [Compound 19, 2-(2-chloro-4-fluorophenoxy)-1-(4-(5-(trifluoromethyl)-1,2,4-oxadiazol-3-yl)phenyl)ethan-1-one]: at least 70%; `COc1cccc(SCC(=O)c2ccc(-c3noc(C(F)(F)F)n3)cc2)c1` [Compound 14, 2-((3-methoxyphenyl)thio)-1-(4-(5-(trifluoromethyl)-1,2,4-oxadiazol-3-yl)phenyl)ethan-1-one]: at least 70%; `O=C(COc1ccnc(Cl)c1)c1ccc(-c2noc(C(F)(F)F)n2)cc1` [Compound 44, 2-((2-chloropyridin-4-yl)oxy)-1-(4-(5-(trifluoromethyl)-1,2,4-oxadiazol-3-yl)phenyl)ethan-1-one]: at least 70%. `O=C(CSc1cccc(F)c1)c1ccc(-c2noc(C(F)(F)F)n2)cc1` [Compound 64, 2-((3-fluorophenyl)thio)-1-(4-(5-(trifluoromethyl)-1,2,4-oxadiazol-3-yl)phenyl)ethan-1-one] returned a pest or weed control at 500 ppm in assay [3] of at least 70%. The molecule `O=C(CS(=O)(=O)c1ccc(F)c(F)c1)c1ccc(-c2noc(C(F)(F)F)n2)cc1` [Compound 96, 2-((3,4-difluorophenyl)sulfonyl)-1-(4-(5-(trifluoromethyl)-1,2,4-oxadiazol-3-yl)phenyl)ethan-1-one] came in with a pest or weed control at 500 ppm in assay [3] of at least 70%.
